Assay results taken from patent publication US20110230476A1, “PI3 KINASE INHIBITORS AND USES THEREOF” (AVILA THERAPEUTICS, INC., priority 2009, published 2011).

Assays:
PI3Kα (p110α/p85α) = molecular target: T1, PI3Kα (p110α/p85α) (Homo sapiens, UniProt P42336); test: HTRF assay, potency against active PI3Kα; assay type: biochemical; conditions: HTRF; [ATP]=50 μM, [di-C8-PIP2]=10 μM; 30 min pre-incubation; read-out: PI3Kα Inhibition
T1 construct: purchased BPS Bioscience (San Diego, Calif.) or Millipore (Billerica, Mass.)
Procedure, shortened: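 IC50 came from a variable-slope fit of % inhibition, calculated from the HTRF emission ratio relative to wells with and without enzyme. Reactions with the active enzyme complex ran 30-60 minutes at 25 °C after ATP addition before stop and detection reagents.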

Phospho-Akt(Ser473) [1] = test: Dose response in SKOV3 cells as determined by Western blot; assay type: cell-based; conditions: Homo sapiens, SK-OV-3, 1 hr, Phospho-Akt normalized to total Akt, read-out: Immunoblot
Description: Dose Response in SKOV3 Cells as Determined by Western Blot
SKOV3 cells were plated in SKOV3 Growth Media (DMEM supplemented with 10% FBS and pen/strep) at a density of 4×10^5 cells per well of 12 well plates. Twenty four hours later the media was removed and replaced with 1 ml media containing test compound and 0.1% DMSO and cells were returned to the incubator for 1 hr. At the end of the hour, the media was removed and the cells were washed with PBS, then lysed and scraped into 30 ul of Cell Extraction Buffer (Biosource, Camarillo, Calif.) plus Complete Protease Inhibitor and PhosStop Phosphatase Inhibitor (Roche, Indianapolis, Ind.).
Cell debris was spun down at 13,000×g for 1 minute and the supernatant was taken as the cell lysate. Protein concentration of the lysate was determined by BCA Assay (Pierce Biotechnology, Rockford, Ill.) and 50 ug of protein was loaded per well onto a NuPAGE Novex 4-12% Bis-Tris gel (Invitrogen, Carlsbad, Calif.) then transferred to Immobilon PVDF-FL (Millipore, Billerica, Mass.).
The blot was blocked in Odyssey Blocking Buffer (Li-Cor Biosciences, Lincoln, Nebr.) for 1 hr then incubated overnight at 4° C. with mouse anti-Akt (#2920) and rabbit anti-Phospho-Akt(Ser473) (#9271)(Cell Signaling Technology, Boston, Mass.) antibodies, both diluted 1:1000 in PBS/Odyssey Buffer (1:1)+0.1% Tween-20. The blots were washed 3 times 5 minutes in PBS+0.2% Tween-20 then incubated for 1 hr at room temperature with fluorescently labeled secondary antibodies (Li-Cor) diluted 1:10000 in PBS/Odyssey Buffer (1:1)+0.1% Tween-20.
The blots were washed 2 times for 5 minutes in PBS+0.2% Tween-20, once in distilled water, then scanned on an Odyssey machine (Li-Cor). Band intensity was determined using the Odyssey software and Phopho-Akt signal was normalized to total Akt within samples, then expressed as a percentage of the untreated Phospho-Akt signal.

Phospho-Akt(Ser473) [2] = test: Dose response in SKOV3 cells as determined by in-cell Western; assay type: cell-based; conditions: Homo sapiens, SK-OV-3; SKOV3 cells, 1 hr; read-out: pAKT Inhibition in cell Western
Procedure, shortened: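 SKOV3 cells treated with compound for 1 hr, then formaldehyde-fixed, permeabilised and stained overnight for phospho-Akt(Ser473) with anti-tubulin as a reference. Infrared secondary antibodies read at 680 and 800 nm channels by in-cell Western imaging.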

PI3Kγ (p120γ) = molecular target: T2, PI3Kγ (p120γ) (Homo sapiens, UniProt P48736); test: HTRF assay, potency against active PI3Kγ; assay type: biochemical; conditions: [ATP]=50 μM, [di-C8-PIP2]=10 μM, 30 min pre-incubation, read-out: PI3Kγ Inhibition
T2 construct: purchased BPS Bioscience (San Diego, Calif.) or Millipore (Billerica, Mass.)
Text: Homogeneous Time Resolved Fluorescence (HTRF) Assay Protocol for Potency Assessment Against the Active Forms of PI3Kα, PI3Kβ, and PI3Kγ
The protocol below describes an end-point, competition-binding HTRF assay used to measure inherent potency of test compounds against active PI3Kα (p110α/p85α), PI3Kβ (p110β/p85α), and PI3Kγ (p120γ) enzymes. The mechanics of the assay platform are best described by the vendor (Millipore, Billerica, Mass.) on their website at the following URL: www.millipore.com/coa/tech1/74jt4z.
Briefly, Stop solution (Stop A, #33-007 and Stop B, #33-009; 3:1 ratio) and Detection Mix (from DMC, #33-015 with DMA, #33-011 and DMB, #33-013; 18:1:1 ratio) were prepared as recommended by the manufacturer about 2 hrs prior to use. Additionally, 1× reaction buffer (from 4× buffer stock# 33-003), 1.4× stocks of PI3Kα, PI3Kβ, and PI3Kγ enzymes from BPS Bioscience (San Diego, Calif.) or Millipore (Billerica, Mass.) with di-C8-PIP2 lipid substrate (#33-005), and a 4×ATP solution (#A7699 Sigma/Aldrich; St. Louis, Mo.) were prepared in 1× reaction buffer. 15 μL of PI3K enzymes and lipid substrate mix were pre-incubated in a Corning (#3573) 384-well, black, non-treated microtiter plate (Corning, N.Y.) for 30 min at 25° C. with a 0.5 μL volume of 50% DMSO and serially diluted compounds prepared in 50% DMSO. Lipid kinase reactions were started with the addition of 5 μL of ATP solution, mixed for 15 sec on a rotary plate shaker and incubated for 30-60 minutes at 25° C. Next, reactions were stopped with a 5 μL addition of Stop solution immediately followed by a 5 μL volume of Detection Mix. Stopped reactions were equilibrated for 1 and 18 hrs at room temperature and read in a Synergy^4 plate reader from BioTek (Winooski, Vt.) at λex330-80/λem620-35 and λem665-7.5. At the conclusion of each assay, the HTRF ratio from fluorescence emission values for each well was calculated and % Inhibition determined from averaged controls wells (+/−PI3K enzyme). % Inhibition values for each compound were then plotted against inhibitor concentration to estimate IC50 from log [Inhibitor] vs Response, Variable Slope model in GraphPad Prism from GraphPad Software (San Diego, Calif.).
[Reagent] used in optimized protocol: • [p110α/p85α]=0.5-1.5 nM, [ATP]=50 μM, [di-C8—PIP2]=10 μM • [p110β/p85α]=0.75 nM, [ATP]=50 μM, [di-C8—PIP2]=10 μM • [p120γ]=2-2.5 nM, [ATP]=50 μM, [di-C8—PIP2]=10 μM • (ATP KMapp for both enzymes was estimated to be 40-70 μM)

PI3K = PI3K HCT116 cellular assay (Western blot); assay type: cell-based; conditions: Homo sapiens, HCT-116, HCT116 colon cancer cells, 1 hour incubation, read-out: PI3K Inhibition
Description: PI3K HCT116 Cellular Assay
Selected compounds were assayed in HCT116 colon cancer cells. […] Cells were then washed with PBS, lysed and the protein lysates were then recovered and analyzed by Western blot.

T2 sequence (P48736 whole entry): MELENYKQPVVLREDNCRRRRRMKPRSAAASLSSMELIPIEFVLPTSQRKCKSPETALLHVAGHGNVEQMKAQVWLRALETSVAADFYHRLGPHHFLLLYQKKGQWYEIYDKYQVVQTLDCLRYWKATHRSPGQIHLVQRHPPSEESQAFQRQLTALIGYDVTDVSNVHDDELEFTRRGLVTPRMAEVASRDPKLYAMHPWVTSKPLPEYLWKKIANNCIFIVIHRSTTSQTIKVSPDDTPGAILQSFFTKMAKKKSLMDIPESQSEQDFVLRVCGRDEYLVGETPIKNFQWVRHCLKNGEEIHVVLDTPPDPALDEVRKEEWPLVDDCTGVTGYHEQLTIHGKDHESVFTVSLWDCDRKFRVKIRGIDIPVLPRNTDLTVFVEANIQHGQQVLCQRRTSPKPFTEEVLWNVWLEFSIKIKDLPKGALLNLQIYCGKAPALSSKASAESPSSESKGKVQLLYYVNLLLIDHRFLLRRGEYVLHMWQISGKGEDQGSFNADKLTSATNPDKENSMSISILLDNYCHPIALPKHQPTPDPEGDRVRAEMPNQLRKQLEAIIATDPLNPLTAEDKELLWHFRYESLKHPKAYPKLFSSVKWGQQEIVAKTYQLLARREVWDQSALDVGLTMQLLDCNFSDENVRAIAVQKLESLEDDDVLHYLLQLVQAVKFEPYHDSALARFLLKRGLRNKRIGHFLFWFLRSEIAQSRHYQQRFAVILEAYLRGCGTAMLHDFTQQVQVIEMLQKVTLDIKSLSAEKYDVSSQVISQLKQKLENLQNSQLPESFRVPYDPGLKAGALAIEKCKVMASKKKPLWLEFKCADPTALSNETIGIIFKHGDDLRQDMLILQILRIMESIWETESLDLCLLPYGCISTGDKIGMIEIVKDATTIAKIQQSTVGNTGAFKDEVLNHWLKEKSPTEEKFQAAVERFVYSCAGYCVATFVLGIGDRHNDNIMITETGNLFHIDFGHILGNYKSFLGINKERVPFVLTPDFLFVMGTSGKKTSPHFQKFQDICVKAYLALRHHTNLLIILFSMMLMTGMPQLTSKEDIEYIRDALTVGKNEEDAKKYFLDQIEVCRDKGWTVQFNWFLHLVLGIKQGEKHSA
T1 sequence (P42336 whole entry): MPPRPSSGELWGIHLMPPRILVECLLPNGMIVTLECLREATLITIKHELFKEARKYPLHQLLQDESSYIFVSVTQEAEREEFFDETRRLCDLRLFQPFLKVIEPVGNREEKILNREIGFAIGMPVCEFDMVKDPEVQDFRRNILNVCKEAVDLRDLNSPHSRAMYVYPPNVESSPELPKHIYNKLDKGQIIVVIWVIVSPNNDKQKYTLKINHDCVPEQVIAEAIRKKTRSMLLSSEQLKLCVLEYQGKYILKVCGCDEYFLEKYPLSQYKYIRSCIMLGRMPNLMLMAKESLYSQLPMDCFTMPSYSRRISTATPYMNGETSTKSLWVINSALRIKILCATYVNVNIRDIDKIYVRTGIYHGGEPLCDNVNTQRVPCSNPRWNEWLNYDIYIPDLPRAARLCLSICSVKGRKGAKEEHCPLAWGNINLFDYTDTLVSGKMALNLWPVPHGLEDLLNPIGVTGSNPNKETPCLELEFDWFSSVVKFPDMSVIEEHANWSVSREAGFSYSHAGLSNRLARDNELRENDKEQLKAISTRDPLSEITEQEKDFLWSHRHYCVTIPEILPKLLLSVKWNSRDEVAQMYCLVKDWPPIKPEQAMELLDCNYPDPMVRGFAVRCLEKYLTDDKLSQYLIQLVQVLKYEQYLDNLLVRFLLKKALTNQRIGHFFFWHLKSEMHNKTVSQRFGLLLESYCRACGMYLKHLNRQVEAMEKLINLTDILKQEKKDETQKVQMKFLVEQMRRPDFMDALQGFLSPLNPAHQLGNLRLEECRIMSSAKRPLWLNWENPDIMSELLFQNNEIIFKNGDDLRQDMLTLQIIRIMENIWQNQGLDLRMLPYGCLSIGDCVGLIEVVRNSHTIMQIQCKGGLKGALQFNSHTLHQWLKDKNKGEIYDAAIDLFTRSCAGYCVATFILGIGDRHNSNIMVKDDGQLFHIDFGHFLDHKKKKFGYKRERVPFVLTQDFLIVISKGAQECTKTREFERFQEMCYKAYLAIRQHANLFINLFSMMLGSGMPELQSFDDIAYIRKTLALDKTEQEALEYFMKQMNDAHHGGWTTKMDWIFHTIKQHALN
T1 sequence (P27986 whole entry partner): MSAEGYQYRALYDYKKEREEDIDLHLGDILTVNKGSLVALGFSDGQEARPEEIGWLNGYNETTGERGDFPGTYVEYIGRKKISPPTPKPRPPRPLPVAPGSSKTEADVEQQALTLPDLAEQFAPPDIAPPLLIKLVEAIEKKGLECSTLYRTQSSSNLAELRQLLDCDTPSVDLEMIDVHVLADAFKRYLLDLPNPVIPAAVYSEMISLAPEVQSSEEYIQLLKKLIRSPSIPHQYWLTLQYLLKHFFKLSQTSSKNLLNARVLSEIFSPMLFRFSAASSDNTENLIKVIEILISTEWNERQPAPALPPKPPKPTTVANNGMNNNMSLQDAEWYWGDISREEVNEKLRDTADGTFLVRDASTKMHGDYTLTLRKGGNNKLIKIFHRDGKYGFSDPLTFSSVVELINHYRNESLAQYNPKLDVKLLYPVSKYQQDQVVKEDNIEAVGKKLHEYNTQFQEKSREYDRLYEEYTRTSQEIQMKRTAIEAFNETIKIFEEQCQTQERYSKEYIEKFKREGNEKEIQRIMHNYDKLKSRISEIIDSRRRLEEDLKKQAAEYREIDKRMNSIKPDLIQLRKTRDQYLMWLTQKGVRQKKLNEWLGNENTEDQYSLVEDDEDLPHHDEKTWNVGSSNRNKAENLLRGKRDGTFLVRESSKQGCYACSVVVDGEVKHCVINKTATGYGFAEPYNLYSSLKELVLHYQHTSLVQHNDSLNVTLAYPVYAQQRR

Structure (SMILES) | IC50 (PI3Kα (p110α/p85α)) [nM] | EC50 (Phospho-Akt(Ser473) [1]) [nM] | EC50 (Phospho-Akt(Ser473) [2]) [nM] | IC50 (PI3Kγ (p120γ)) [nM] | EC50 (PI3K) [nM]
C/C=C/C(=O)CCC(=O)N1CCC(C#Cc2cc3nc(-c4cccc(O)c4)nc(N4CCOCC4)c3s2)CC1 [II-a-89, (E)-1-(4-((2-(3-hydroxyphenyl)-4-morpholinothieno[3,2-d]pyrimidin-6-yl)ethynyl)piperidin-1-yl)hept-5-ene-1,4-dione] | < 10 | 10 to 100 | – | – | –
C=CC(=O)NCc1cccc(-c2cc3nc(-c4cccc(O)c4)nc(N4CCOCC4)c3s2)c1 [II-a-64, N-(3-(2-(3-hydroxyphenyl)-4-morpholinothieno[3,2-d]pyrimidin-6-yl)benzyl)acrylamide] | < 10 | 10 to 100 | – | – | –
C=CC(=O)Nc1ccc(CC(=O)N2CCC(n3ncc4c(N5CCOCC5)nc(-c5cnc(N)nc5)nc43)CC2)cc1 [VII-13, N-(4-(2-(4-(6-(2-aminopyrimidin-5-yl)-4-morpholino-1H-pyrazolo[3,4-d]pyrimidin-1-yl)piperidin-1-yl)-2-oxoethyl)phenyl)acrylamide] | 100 to 1000 | 10 to 100 | 10 to 100 | – | –
C=CC(=O)Nc1ccc(CCNC(=O)c2cc3nc(-c4cnc(N)nc4)nc(N4CCOCC4)c3s2)cc1 [II-a-154, N-(4-acrylamidophenethyl)-2-(2-aminopyrimidin-5-yl)-4-morpholinothieno[3,2-d]pyrimidine-6-carboxamide] | 10 to 100 | ≤ 10 | – | – | –
C=CC(=O)NCC(=O)N1CCN(Cc2cc3nc(-c4cccc5[nH]ncc45)nc(N4CCOCC4)c3s2)CC1 [II-a-6, N-(2-(4-((2-(1H-indazol-4-yl)-4-morpholinothieno[3,2-d]pyrimidin-6-yl)methyl)piperazin-1-yl)-2-oxoethyl)acrylamide] | 100 to 1000 | – | – | > 1000 | 2000 to 5000
C=CC(=O)NC1CCC(C(=O)N(C)Cc2cc3nc(-c4cccc(O)c4)nc(N4CCOCC4)c3s2)CC1 (racemic) [II-a-35, (±)-4-acrylamido-N-((2-(3-hydroxyphenyl)-4-morpholinothieno[3,2-d]pyrimidin-6-yl)methyl)-N-methylcyclohexanecarboxamide] | 100 to 1000 | – | – | 100 to 1000 | 100 to 500
C=CC(=O)Nc1ccc(C(=O)N2CC=C(c3cc4nc(-c5cnc(N)nc5)nc(N5CCOCC5)c4s3)CC2)cc1 [II-a-156, N-(4-(4-(2-(2-aminopyrimidin-5-yl)-4-morpholinothieno[3,2-d]pyrimidin-6-yl)-1,2,3,6-tetrahydropyridine-1-carbonyl)phenyl)acrylamide] | 10 to 100 | ≤ 10 | – | – | –
CC(C)=CC(=O)CCCC(=O)N1CCC(c2cc3nc(-c4cnc(N)nc4)cc(N4CCOCC4)c3s2)CC1 [II-g-6, 1-(4-(5-(2-aminopyrimidin-5-yl)-7-morpholinothieno[3,2-b]pyridin-2-yl)piperidin-1-yl)-7-methyloct-6-ene-1,5-dione] | 100 to 1000 | 100 to 1000 | – | – | –
C/C=C/C(=O)CCC(=O)N1CCN(CC#Cc2cc3nc(-c4cccc(O)c4)nc(N4CCOCC4)c3s2)CC1 [II-a-48, (E)-1-(4-(3-(2-(3-hydroxyphenyl)-4-morpholinothieno[3,2-d]pyrimidin-6-yl)prop-2-ynyl)piperazin-1-yl) hept-5-ene-1,4-dione] | < 10 | – | – | > 1000 | 20 to 100
C=CS(=O)(=O)N(C)Cc1cc2nc(-c3cccc(O)c3)nc(N3CCOCC3)c2s1 [II-a-29, N-((2-(3-hydroxyphenyl)-4-morpholinothieno[3,2-d]pyrimidin-6-yl)methyl)-N-methylethenesulfonamide] | 10 to 100 | – | – | 100 to 1000 | 100 to 500
C=CC(=O)NCCS(=O)(=O)N1CCN(Cc2cc3nc(-c4cccc(O)c4)nc(N4CCOCC4)c3s2)CC1 [II-a-25, N-(2-(4-((2-(3-hydroxyphenyl)-4-morpholinothieno[3,2-d]pyrimidin-6-yl)methyl)piperazin-1-ylsulfonyl)ethyl)acrylamide] | 10 to 100 | – | – | 100 to 1000 | 20 to 100
C=CC(=O)Nc1ccc(OCc2cc3nc(-c4cnc(N)nc4)nc(N4CCOCC4)c3s2)cc1 [II-a-172, N-(4-((2-(2-aminopyrimidin-5-yl)-4-morpholinothieno[3,2-d]pyrimidin-6-yl)methoxy)phenyl)acrylamide] | 100 to 1000 | ≤ 10 | – | – | –
O=C(/C=C/c1ccccc1)CCC(=O)N1CCN(C(=O)c2cc3nc(-c4cccc5[nH]ncc45)nc(N4CCOCC4)c3s2)CC1 [II-a-142, (E)-1-(4-(2-(1H-indazol-4-yl)-4-morpholinothieno[3,2-d]pyrimidine-6-carbonyl)piperazin-1-yl)-6-phenylhex-5-ene-1,4-dione] | < 10 | 10 to 100 | 10 to 100 | – | –
C=CC(=O)Nc1ccc(CN(C)Cc2cc3nc(-c4cnc(N)nc4)nc(N4CCOCC4)c3s2)cc1 [II-a-176, N-(4-((((2-(2-aminopyrimidin-5-yl)-4-morpholinothieno[3,2-d]pyrimidin-6-yl)methyl)(methyl)amino)methyl)phenyl)acrylamide] | 10 to 100 | 10 to 100 | – | – | –
C=CC(=O)Nc1ccc(CCNC(=O)c2cc(-c3cnc(N)nc3)nc(N3CCOCC3)c2)cc1 [XII-2, N-(4-acrylamidophenethyl)-2-(2-aminopyrimidin-5-yl)-6-morpholinoisonicotinamide] | 10 to 100 | ≥ 1000 | – | – | –
C=C(C)C(=O)CCCC(=O)N1CCN(c2ccnc3ccc(/C=C4\SC(Nc5c(Cl)cccc5Cl)=NC4=O)cc23)CC1 [V-3, (Z)-1-(4-(6-((2-(2,6-dichlorophenylamino)-4-oxothiazol-5(4H)-ylidene)methyl)quinolin-4-yl)piperazin-1-yl)-6-methylhept-6-ene-1,5-dione] | 100 to 1000 | – | – | > 1000 | 500 to 2000
